Experimental data reported in patent US20240262819A1, “NOVEL COMPOUNDS HAVING INHIBITORY ACTIVITY AGAINST GLUCOSYLCERAMIDE SYNTHASE OR PHARMACEUTICALLY ACCEPTABLE SALT THEREOF, PROCESSES FOR PREPARING THE SAME, AND PHARMACEUTICAL COMPOSITIONS COMPRISING THE SAME” (YUHAN CORPORATION, priority 2021, published 2024).
Where two headings read alike, the source gives them in different places.

Key:
[1] = Evaluation of blood-brain barrier (BBB) permeability through oral administration; format: in vivo, mice; conditions: mice, oral, dose 30 mg/kg, 4 hr; for Kp at 4 h / concentration at 4 h: mouse, in vivo; for Kp at 4 h: read-out: Mean brain-plasma drug ratio at 4 hr
Experimental: The blood-brain barrier (BBB) permeability was evaluated in mice, with respect to the compounds according to the present invention and the control (ibiglustat). Each compound of the present invention and the control were suspended in 0.5% methyl cellulose containing 0.2% Tween 80 and then orally administered to mice at a dose of 10 or 30 mg/10 ml/kg. After the whole blood was collected from the heart of each mouse at the time of 4 hours after the administration, it was placed in a lithium heparin tube and immediately centrifuged to obtain the plasma. After the exsanguination was carried out through abdominal vena cava incision, the forebrain was taken by dissection of the head. Both of the forebrain and the plasma were stored in a −80° C. freezer until the analysis of drug concentrations therein. For the analysis of drug concentrations therein, the forebrain was immersed in distilled water and then homogenized with a homogenizer to obtain a homogenate. Each plasma and homogenate was treated with acetonitrile to precipitate proteins, vortexed for 15 seconds, and then centrifuged (12700 rpm, 10 min, 4° C.). The obtained supernatant was diluted with an 80% aqueous solution of acetonitrile containing 0.1% formic acid and then analyzed with an LC-MS/MS instrument. LC-MS/MS analysis was carried out with a reversed-phase column, using distilled water containing 0.1% formic acid and acetonitrile as mobile phases. Each eluted material was detected through a mass spectrometer to calculate the drug concentrations thereof. The brain-plasma drug ratio (B/P ratio) was calculated from the drug concentrations in each tissue to evaluate the blood-brain barrier (BBB) permeability.

[2] = system: GM1 production in Jurkat cells; experiment: cells; format: cell-based
[3] = biological target: glucosylceramide synthase (GCS) (Homo sapiens (Human), UniProt Q16739); experiment: Evaluation of inhibitory activities against GCS (A549 cell lysate, NBD C6-ceramide, HPLC); format: biochemical
Sequence of glucosylceramide synthase (GCS) (Q16739 whole entry): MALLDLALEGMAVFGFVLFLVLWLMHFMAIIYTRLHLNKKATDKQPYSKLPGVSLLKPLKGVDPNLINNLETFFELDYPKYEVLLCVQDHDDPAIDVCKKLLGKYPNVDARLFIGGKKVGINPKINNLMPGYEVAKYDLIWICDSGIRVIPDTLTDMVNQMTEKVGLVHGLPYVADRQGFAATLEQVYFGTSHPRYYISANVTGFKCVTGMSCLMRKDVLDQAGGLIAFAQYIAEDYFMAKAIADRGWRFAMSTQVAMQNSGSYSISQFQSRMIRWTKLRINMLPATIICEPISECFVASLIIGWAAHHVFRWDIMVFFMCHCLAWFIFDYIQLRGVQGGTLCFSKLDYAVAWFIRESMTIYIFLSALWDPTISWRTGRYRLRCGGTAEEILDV
Procedure, shortened: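 GCS activity in A549 cell lysate (50 mM HEPES, pH 7.3) with NBD C6-ceramide, reacted 90 min at 37 °C. Lipids were chloroform/methanol-extracted and separated by normal-phase HPLC with fluorescence detection (ex 470/em 530 nm). GlcCer fraction of peak area was normalized between DMSO and ibiglustat, and IC50 obtained by curve fitting.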

[4] = read-out: Mean drug concentrations in brain tissue at 4 hr
[5] = read-out: Mean drug concentrations in plasma at 4 hr

Row | Structure (SMILES) | Kp at 4 h [1] | concentration at 4 h [1, 4] [ng/g] | concentration at 4 h [1, 5] [ng/mL] | IC50 ([2]; Homo sapiens, Jurkat, 72 h) [nM] | IC50 [3] [nM] | Mean brain-plasma drug ratio at 4 hr [1] | Mean drug concentrations in brain tissue at 4 hr [1] [ng/g] | Mean drug concentrations in plasma at 4 hr [1] [ng/mL] | IC50 ([2]; read-out: IC50) [nM] | IC50 ([3]; % GCS activity, A549 cell lysate, 37° C. for 90 minutes, read-out: IC50) [nM]
1 | COc1ccc(-c2ccc3c(c2)CC(C)(C)[C@H]3NC(=O)O[C@@H]2CN3CCC2CC3)cc1F [Example 18, (S)-quinuclidin-3-yl((R)-5-(3-fluoro-4-methoxyphenyl)-2,2-dimethyl-2,3-dihydro-1H-inden-1-yl)carbamate] | 3.47 | 3950 | 1130 | 50.7 | 3.19 |  |  |  |  | 
2 | CC(C)Oc1ccc(-c2ccc3c(c2)CC(C)(C)[C@H]3NC(=O)O[C@@H]2CN3CCC2CC3)c(Cl)c1 [Example 32, (S)-quinuclidin-3-yl((R)-5-(2-chloro-4-isopropoxyphenyl)-2,2-dimethyl-2,3-dihydro-1H-inden-1-yl)carbamate] | 4.23 | 5650 | 1340 | 4.23 | 0.192 |  |  |  |  | 
3 | Cc1cc(-c2ccc3c(c2)CC(C)(C)[C@H]3NC(=O)O[C@@H]2CN3CCC2CC3)ccc1OC(C)C [Example 34, (S)-quinuclidin-3-yl((R)-5-(4-isopropoxy-3-methylphenyl)-2,2-dimethyl-2,3-dihydro-1H-inden-1-yl)carbamate] | 14 | 10700 | 767 | 2.3 | 1.31 |  |  |  |  | 
4 | COc1cc(-c2ccc3c(c2)CC(C)(C)[C@H]3NC(=O)O[C@@H]2CN3CCC2CC3)ccc1OC(C)C [Example 35, (S)-quinuclidin-3-yl((R)-5-(4-isopropoxy-3-methoxyphenyl)-2,2-dimethyl-2,3-dihydro-1H-inden-1-yl)carbamate] | 1.85 | 2010 | 1080 | 3.3 | 2.22 |  |  |  |  | 
5 | Cc1cc(OC(C)C)ccc1-c1ccc2c(c1)CC(C)(C)[C@H]2NC(=O)O[C@@H]1CN2CCC1CC2 [Example 36, (S)-quinuclidin-3-yl((R)-5-(4-isopropoxy-2-methylphenyl)-2,2-dimethyl-2,3-dihydro-1H-inden-1-yl)carbamate] | 3.65 | 6650 | 1830 | 0.7 | 0.13 |  |  |  |  | 
6 | CC1(C)Cc2cc(-c3ccc(OCC4CC4)cc3Cl)ccc2[C@@H]1NC(=O)O[C@@H]1CN2CCC1CC2 [Example 38, (S)-quinuclidin-3-yl((R)-5-(2-chloro-4-(cyclopropylmethoxy)phenyl)-2,2-dimethyl-2,3-dihydro-1H-inden-1-yl)carbamate] | 5.6 | 3640 | 670 | 3.2 | 0.05 |  |  |  |  | 
7 | CC1(C)Cc2cc(-c3ccc(OCC4CC4)c(Cl)c3)ccc2[C@@H]1NC(=O)O[C@@H]1CN2CCC1CC2 [Example 39, (S)-quinuclidin-3-yl((R)-5-(3-chloro-4-(cyclopropylmethoxy)phenyl)-2,2-dimethyl-2,3-dihydro-1H-inden-1-yl)carbamate] | 9.85 | 5510 | 564 | 1.1 | 1.03 |  |  |  |  | 
8 | CCOc1ccc(-c2ccc3c(c2)CC(C)(C)[C@H]3NC(=O)O[C@@H]2CN3CCC2CC3)c(Cl)c1 [Example 44, (S)-quinuclidin-3-yl((R)-5-(2-chloro-4-ethoxyphenyl)-2,2-dimethyl-2,3-dihydro-1H-inden-1-yl)carbamate] | 4.79 | 8860 | 1850 | 2.3 | 0.17 |  |  |  |  | 
9 | CCCOc1c(C)cc(-c2cc3c(cc2F)[C@H](NC(=O)O[C@@H]2CN4CCC2CC4)C(C)(C)C3)cc1C [Example 64, (S)-quinuclidin-3-yl((R)-5-(3,5-dimethyl-4-propoxyphenyl)-6-fluoro-2,2-dimethyl-2,3-dihydro-1H-inden-1-yl)carbamate] | 4.43 | 1040 | 234 | 11.6 | 3.92 |  |  |  |  | 
10 | CC(C)Oc1ccc(-c2cc3c(cc2F)[C@H](NC(=O)O[C@@H]2CN4CCC2CC4)C(C)(C)C3)cc1F [Example 83, (S)-quinuclidin-3-yl((R)-6-fluoro-5-(3-fluoro-4-isopropoxyphenyl)-2,2-dimethyl-2,3-dihydro-1H-inden-1-yl)carbamate] | 6.29 | 7370 | 1170 | 10.4 | 0.58 |  |  |  |  | 
11 | Cc1ccc(-c2cc3c(cc2F)[C@H](NC(=O)O[C@@H]2CN4CCC2CC4)C(C)(C)C3)cc1Cl [Example 84, (S)-quinuclidin-3-yl((R)-5-(3-chloro-4-methylphenyl)-6-fluoro-2,2-dimethyl-2,3-dihydro-1H-inden-1-yl)carbamate] | 7.23 | 4940 | 683 | 17.2 | 0.29 |  |  |  |  | 
12 | CCOc1ccc(-c2cc3c(cc2F)[C@H](NC(=O)O[C@@H]2CN4CCC2CC4)C(C)(C)C3)cc1Cl [Example 86, (S)-quinuclidin-3-yl((R)-5-(3-chloro-4-ethoxyphenyl)-6-fluoro-2,2-dimethyl-2,3-dihydro-1H-inden-1-yl)carbamate] | 5.65 | 4790 | 852 | 45.8 | 0.756 |  |  |  |  | 
13 | CCCOc1ccc(-c2cc3c(cc2F)[C@H](NC(=O)O[C@@H]2CN4CCC2CC4)C(C)(C)C3)cc1Cl [Example 87, (S)-quinuclidin-3-yl((R)-5-(3-chloro-4-propoxyphenyl)-6-fluoro-2,2-dimethyl-2,3-dihydro-1H-inden-1-yl)carbamate] | 8.57 | 972 | 114 | 36.2 | 0.77 |  |  |  |  | 
14 | COc1ccc(-c2cc3c(cc2F)[C@H](NC(=O)O[C@@H]2CN4CCC2CC4)C(C)(C)C3)cc1F [Example 89, (S)-quinuclidin-3-yl((R)-6-fluoro-5-(3-fluoro-4-methoxyphenyl)-2,2-dimethyl-2,3-dihydro-1H-inden-1-yl)carbamate] | 5.42 | 4040 | 751 | 43.5 | 0.621 |  |  |  |  | 
15 | CC(C)Oc1ccc(-c2cc3c(cc2F)[C@H](NC(=O)O[C@@H]2CN4CCC2CC4)C(C)(C)C3)c(Cl)c1 [Example 92, (S)-quinuclidin-3-yl((R)-5-(2-chloro-4-isopropoxyphenyl)-6-fluoro-2,2-dimethyl-2,3-dihydro-1H-inden-1-yl)carbamate] | 4.13 | 2230 | 545 | 1.16 | 0.07 |  |  |  |  | 
16 | Cc1cc(OC(C)C)ccc1-c1cc2c(cc1F)[C@H](NC(=O)O[C@@H]1CN3CCC1CC3)C(C)(C)C2 [Example 96, (S)-quinuclidin-3-yl((R)-6-fluoro-5-(4-isopropoxy-2-methylphenyl)-2,2-dimethyl-2,3-dihydro-1H-inden-1-yl)carbamate] | 6.24 | 5360 | 864 | 0.76 | 0.08 |  |  |  |  | 
17 | CCOc1ccc(-c2cc3c(cc2F)[C@H](NC(=O)O[C@@H]2CN4CCC2CC4)C(C)(C)C3)c(Cl)c1 [Example 104, (S)-quinuclidin-3-yl((R)-5-(2-chloro-4-ethoxyphenyl)-6-fluoro-2,2-dimethyl-2,3-dihydro-1H-inden-1-yl)carbamate] | 3.76 | 5180 | 1380 | 1.4 | 0.1 |  |  |  |  | 
18 | CCCOc1c(C)cc(-c2ccc3c(c2)CCC(C)(C)[C@H]3NC(=O)O[C@@H]2CN3CCC2CC3)cc1C [Example 148, (S)-quinuclidin-3-yl((R)-6-(3,5-dimethyl-4-propoxyphenyl)-2,2-dimethyl-1,2,3,4-tetrahydronaphthalen-1-yl)carbamate] | 1.82 | 1680 | 951 | 8.86 | 1.6 |  |  |  |  | 
19 | CC(C)Oc1ccc(-c2ccc3c(c2)CCC(C)(C)[C@H]3NC(=O)O[C@@H]2CN3CCC2CC3)cc1Cl [Example 150, (S)-quinuclidin-3-yl((R)-6-(3-chloro-4-isopropoxyphenyl)-2,2-dimethyl-1,2,3,4-tetrahydronaphthalen-1-yl) carbamate] |  |  |  |  |  | 1.471 | 1520.5 | 1065 | 3.27 | 1.26
